Data published in the METLIN SMRT retention time set (Domingo-Almenara et al. 2019).

Assay: gradient 5% acetonitrile 3 min, to 50% in 2 min, to 85% in 15 min, held 3 min, 100 µL/min
Details: column: Zorbax Extend-C18 2.1 x 50 mm; eluents: water / acetonitrile, 0.1% formic acid
Method in brief: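 Data were gathered over 3 months by HPLC coupled to a quadrupole time-of-flight mass spectrometer, operated in positive and negative ionization mode. Mixtures of ~100 pure standards ran on a Zorbax Extend-C18 column (2.1 × 50 mm, 1.8 μm) at 100 μL/min, with water and acetonitrile each containing 0.1% formic acid and dead and dwell volumes of 40 μL and 900 μL. Retention time was read from adduct peaks picked by computer and checked manually.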

RP-LC retention time	SMILES
771 s	CCCN1C(=O)COc2cc(-c3noc(C(=O)NCCc4ccc(S(N)(=O)=O)cc4)n3)ccc21
916 s	Cc1nc(-c2ccccc2OC2CN(S(=O)(=O)Cc3ccccc3)C2)no1
848 s	CCc1noc(NC(C)=O)c1-c1ccc(C)c(S(=O)(=O)Nc2ccc(F)cc2C)c1
690 s	O=C(Nc1cccc(-c2ccc(N3CCCC3)nn2)c1)Nc1c(F)cccc1F
780 s	COCCc1noc(C2CN(S(=O)(=O)Cc3ccccc3)C2)n1
1050 s	CCCOc1ccc(C(=O)Nc2nnc(SCc3nnc(-c4ccccc4)o3)s2)cc1
802 s	COc1cccc(-c2nc(Cn3cnc4ccccc4c3=O)no2)c1OC
646 s	CC(C)CN1CCN(C(=O)c2cnc(-c3ccccc3)nc2-c2ccncc2)CC1
874 s	CCn1cc(-c2nc(CC(=O)Nc3ccccc3F)cs2)c2cccnc21
1090 s	Oc1ccccc1-c1nc2ccc(Cl)cn2c1Nc1ccc(Cl)cc1
943 s	CCc1ccc(S(=O)(=O)NCc2c(-c3ccccc3)nc3sc(C)nn23)cc1
965 s	O=C(CN1C(=O)C(O)(c2cccc(F)c2)c2ccccc21)NCCC1=CCCCC1 (centres undefined)
858 s	O=C(O)Cc1sc(Nc2ccccc2)nc1-c1ccccc1
656 s	Cc1ccc(CNC(=O)c2ccc3ncnc(N4CCCC4)c3c2)cc1
1110 s	O=C(O)c1cc(-c2ccc(Br)s2)nc2ccccc12
621 s	O=C1CCCc2cc(S(=O)(=O)NCCCN3CCN(c4ccccc4F)CC3)ccc2N1
881 s	CCc1nn2c(CNC(=O)c3ccc(OC)cc3)c(-c3ccccc3)nc2s1
651 s	CC(=O)c1cccc(S(=O)(=O)Nc2ccc(CC(=O)N(C)C)cc2)c1
831 s	CCc1noc(NC(C)=O)c1-c1ccc(OC)c(S(=O)(=O)Nc2cccc(Cl)c2)c1

RP-LC retention time	SMILES
1190 s	Cc1cc(C)c(S(=O)(=O)N2CC(c3nc(Cc4ccccc4)no3)C2)cc1C
1160 s	CCCCCOC(=O)c1ccc(Nc2nc(C(=O)OCC)nc3ccccc23)cc1
900 s	COc1ccc(S(=O)(=O)NC2CCN(C(=O)Nc3ccc(F)c(Cl)c3)CC2)cc1
867 s	O=C(CSc1nc2ccccc2s1)N1CCN(C(=O)C2CC2c2ccccc2)CC1 (centres undefined)
764 s	Cc1nc2ccccc2nc1NS(=O)(=O)c1ccc(N)cc1
801 s	CCc1nnc(-c2ccc3ccn(CC(=O)NCc4ccc(F)cc4)c3c2)o1
855 s	COc1ccc2ncc(S(=O)(=O)c3ccccc3)c(Nc3ccc4c(c3)OCCO4)c2c1
676 s	CCOC(=O)C1CCN(S(=O)(=O)c2cccc(-c3cn4ccccc4n3)c2)CC1
900 s	CCCn1nc(CNC(=O)COc2ccccc2)c2ccccc21
719 s	CCC(=O)Nc1c(C)noc1/C=C/c1ccc(S(=O)(=O)Nc2ccc(S(N)(=O)=O)cc2)s1
692 s	O=C(COc1ccccc1)NCC1CC(=O)N(Cc2ccc(F)cc2)C1 (centres undefined)
1080 s	Cc1ccc(NC(=O)Cn2c(=O)cc(-c3nc(C(C)C)no3)c3ccccc32)cc1F
790 s	COc1ccccc1NC(=O)CSc1ncc(S(=O)(=O)c2ccccc2)c(N)n1
679 s	Cc1nc(-c2ccncc2)cc2nn(CC(=O)Nc3ccc(F)c(Cl)c3)c(=O)n12
744 s	O=C(Cc1csc2nc(-c3ccccc3)cn12)NCc1ccc2c(c1)OCO2
951 s	Cc1ccc(S(=O)(=O)N2CCOCC2)cc1-c1nnc(-c2ccccc2Cl)o1
991 s	COc1ccc(NC(=O)Cn2cnc3c(sc4nc(-c5ccccc5)ccc43)c2=O)c(OC)c1
1000 s	Cc1ccc(S(=O)(=O)N2C(=O)CCC2C(=O)N2CCc3ccccc32)cc1C (centres undefined)
1190 s	CCc1cc(=O)n(CC(=O)NC(C)CCc2ccccc2)c(-c2ccccc2)n1 (centres undefined)

The remaining lines, values behind:

SMILES	RP-LC retention time
O=C(NC1CC1)C1CCCN(S(=O)(=O)c2c[nH]c(C(=O)N3CCCC3)c2)C1 (centres undefined)	627 s
Cc1cccn2cc(C(=O)NCCC3=CCCCC3)nc12	860 s
CCOC(=O)c1c(C)[nH]c(C(=O)N2CCCC(C(=O)NCCCN3CCCCCC3)C2)c1C (centres undefined)	624 s
CCOc1ccccc1NC(=O)N1CC(n2ccnc2C)C1	639 s
COCCn1nc2n(c1=O)CCN(Cc1cccc(OC)n1)CC2	515 s
O=C(NC1CCN(c2cc(-c3ccc(F)cc3)[nH]n2)C1)c1ccc2[nH]ccc2c1 (centres undefined)	689 s
O=C(CSc1ccc(-n2ccnc2)nn1)Nc1ccc(OC(F)(F)F)cc1	618 s
CSc1cccc(NC(=O)C2CCCN(c3ccc(=O)n(-c4cccc(Cl)c4)n3)C2)c1 (centres undefined)	1010 s
N#Cc1c(NC(=O)C2Cc3ccccc3C(=O)O2)sc2c1CCCC2 (centres undefined)	663 s
C=CCN1C(=O)COc2ccc(-c3nc(NC(=O)C(F)(F)F)sc3C)cc21	932 s
O=C(CC(F)(F)F)N1CCC(c2noc(-c3cccnc3)n2)C1 (centres undefined)	643 s
Cn1cnc2c(C(=O)NCC3CCCO3)nn(-c3ccccc3)c2c1=O (centres undefined)	641 s
CCCCS(=O)(=O)N1CCC2(CC1)NCCCN=C2Nc1cccc(F)c1	677 s
CC12C=CC(=O)C=C1CCC1C2=CCC2(C)C1CC[C@@H]2C(=O)CN1CCN(c2cc(N3CCCC3)nc(N3CCCC3)n2)CC1 (some centres undefined)	732 s
CCN(CC)c1cc(CNC(=O)Nc2cc(OC)cc(OC)c2)ccn1	620 s
O=S(=O)(c1cccnc1)N1CCCC(c2nnc(C(F)(F)F)o2)C1 (centres undefined)	747 s
CCCN(CC1CC1)C(=O)c1nn(CCOC)c2c1CNCC2	567 s
COc1cccc(NC(=O)C2CC(=O)N(c3ccc4c(c3)CCN4C(=O)C3CCC3)C2)c1 (centres undefined)	817 s
CCCNC(=O)c1ccc(-c2ccc3c(c2)CCN3C(=O)CC)cc1	822 s
COc1cccc(C(=O)N2CCN(c3ccc(=O)n(-c4ccc(Cl)cc4)n3)CC2)c1	853 s
CCCN(CC1CC1)C(=O)[C@@H]1COCC(=O)N1Cc1ccccc1	818 s
CC1(C)C(=O)N(c2ccc(C#N)c(C(F)(F)F)c2)C(=O)N1CCCCO	888 s
O=C(Nc1ccccc1)N1CCC2(CC1)CC(N1CCOCC1)CCO2 (centres undefined)	583 s
Cc1[nH]c(C(=O)N2CCCC(C(=O)NC(C)C)C2)c(C)c1C(=O)OC(C)C (centres undefined)	770 s
CC(C)(C)n1nnnc1C1CC2(CCOCC2)C(=O)N1Cc1cc(F)ccc1F (centres undefined)	793 s
O=C(Nc1cnn(-c2ncncc2N2CCOCC2)c1)c1ccc(C(F)(F)F)cc1	714 s

SMILES	RP-LC retention time
CCOC(=O)C1CCCN(C(=O)Cn2ccc3ccc(-c4nnc(C)o4)cc32)C1 (centres undefined)	785 s
O=C(O)C1CCc2sc(C(=O)N3CCOCC3)cc2C1 (centres undefined)	625 s
O=C1CC(/C=C/c2ccccc2)Cc2nc(N3CCN(c4ncccn4)CC3)ncc21 (centres undefined)	1130 s
O=C(c1sc2ccccc2c1Cl)N1CCN(c2ccccn2)CC1	678 s
CCc1nc(-c2ccnc(N3CCCC3)c2)no1	616 s
COc1cc(NC(=O)C2CCCN(c3ncnc4c3nc3n4CCCCC3)C2)cc(OC)c1OC (centres undefined)	720 s
COc1cc(-c2nc3cc(C)ccn3c2Nc2ccc3c(c2)OCCO3)ccc1O	636 s
CC1CCCCN1CCNC(=O)c1ccc2ccnc(N3CCN(c4ccc(Cl)cc4)CC3)c2c1 (centres undefined)	664 s
CC(=O)NCC1CNCC12CCCCC2 (centres undefined)	509 s
Cn1cccc1C(=O)N1CCc2nn(CC#N)c(=O)n2CC1	622 s
CN(C(=O)CSc1cc(NCc2ccc(Cl)cc2)ncn1)C1CCCCC1	956 s
COc1ccc(NC(=O)NCC23CCCC=C2N(C)C(=O)CC3)cc1 (centres undefined)	740 s
Cc1nnc(-c2ccc3ccn(CC(=O)N4CCN(C5CCCCC5)CC4)c3c2)o1	620 s
COc1ccc(NC(=O)C2CCCN2S(=O)(=O)c2ccc3c(c2)CCCC(=O)N3)cc1Cl (centres undefined)	787 s
O=C(c1ccc(Cl)nc1)N1CCCC1c1nc(-c2cccc(C(F)(F)F)c2)no1 (centres undefined)	1070 s
Cc1csc(-c2cc(S(=O)(=O)Nc3ccc(Cl)cc3C)c(C)s2)n1	1140 s
COc1ccc(-c2noc(C3CC(=O)N(c4cc(C)ccc4C)C3)n2)cc1 (centres undefined)	988 s
Cc1ccsc1CN1CCCC(c2nc(-c3cccnc3)n[nH]2)C1 (centres undefined)	561 s
CCOC(=O)c1noc2ncnc(Nc3ccc(C)c(C)c3)c12	1070 s
CC(C)c1nc(N2CCN(c3ccccc3)CC2)ncc1C(=O)O	868 s
Nc1nc(N)c2nc(-c3cccc(O)c3)c(-c3cccc(O)c3)nc2n1	630 s
COc1ccc2[nH]cc(CN3CC[C@H](c4n[nH]c(C)n4)[C@H](N(C)C)C3)c2c1	547 s
O=C(c1nccc2ccccc12)N1CCC(Nc2ncnc3c2CCC3)C1 (centres undefined)	537 s
CN1c2c(Cl)cccc2C(=O)NC12CCN(C(=O)c1ccccc1)CC2	768 s
COc1ccc(S(=O)(=O)N2CC(F)(F)C[C@H]2c2nc(C)no2)cc1	851 s
